# Assay results as given in patent US9630961B2, “Arginine methyltransferase inhibitors and uses thereof” (Epizyme, Inc., priority 2013, dated 2017).
# pIC50: −log10 of the molar value.
# How the values were obtained:
# [1] = system: mono-methyl arginine in RKO cells; test: RKO Methylation Assay, In Cell Western for mono-methyl arginine and DNA content; type: cell-based; details: Homo sapiens, 72 hours, percent activation of mono-methyl arginine signal
# Description: RKO Methylation Assay RKO adherent cells were purchased from ATCC (American Type Culture Collection), Manassas, Va., USA. DMEM/Glutamax medium, penicillin-streptomycin, heat inactivated fetal bovine serum, 0.05% trypsin and D-PBS were purchased from Life Technologies, Grand Island, N.Y., USA. Odyssey blocking buffer, 800CW goat anti-rabbit IgG (H+L) antibody, and Licor Odyssey infrared scanner were purchased from Licor Biosciences, Lincoln, Nebr., USA. Mono-methyl arginine antibody was purchased from Cell Signaling Technology, Danvers, Mass., USA. Methanol was purchased from VWR, Franklin, Mass., USA. 10% Tween 20 was purchased from KPL, Inc., Gaithersburg, Md., USA. DRAQ5 was purchased from Biostatus Limited, Leicestershire, UK. RKO adherent cells were maintained in growth medium (DMEM/Glutamax medium supplemented with 10% v/v heat inactivated fetal bovine serum and 100 units/mL penicillin-streptomycin) and cultured at 37° C. under 5% CO2. Cell Treatment, in Cell Western (ICW) for Detection of Mono-Methyl Arginine and DNA Content. RKO cells were seeded in assay medium at a concentration of 20,000 cells per mL to a poly-D-lysine coated 384 well culture plate (BD Biosciences 356697) with 50 μL per well. Compound (100 nL) from a 96-well source plate was added directly to 384 well cell plate. Plates were incubated at 37° C., 5% CO2 for 72 hours. After three days of incubation, plates were brought to room temperature outside of the incubator for ten minutes and blotted on paper towels to remove cell media. 50 μL of ice cold 100% methanol was added directly to each well and incubated for 30 min at room temperature. After 30 min, plates were transferred to a Biotek EL406 plate washer and washed 2 times with 100 μL per well of wash buffer (IX PBS). Next 60 μL per well of Odyssey blocking buffer (Odyssey Buffer with 0.1% Tween 20 (v/v)) were added to each plate and incubated 1 hour at room temperature. Blocking buffer was removed and 20 μL per well of primary antibody was added (mono-methyl arginine diluted 1:200 in Odyssey buffer with 0.1% Tween 20 (v/v)) and plates were incubated overnight (16 hours) at 4° C. Plates were washed 5 times with 100 μL per well of wash buffer. Next 20 μL per well of secondary antibody was added (1:200 800CW goat anti-rabbit IgG (H+L) antibody, 1:1000 DRAQ5 (Biostatus limited) in Odyssey buffer with 0.1% Tween 20 (v/v)) and incubated for 1 hour at room temperature. The plates were washed 5 times with 100 μL per well wash buffer then 2 times with 100 μL per well of water. Plates were allowed to dry at room temperature then imaged on the Licor Odyssey machine which measures integrated intensity at 700 nm and 800 nm wavelengths. Both 700 and 800 channels were scanned. Calculations: First, the ratio for each well was determined by: Each plate included fourteen control wells of DMSO only treatment (minimum activation) as well as fourteen control wells for maximum activation treated with 20 μM of a reference compound. The average of the ratio values for each control type was calculated and used to determine the percent activation for each test well in the plate. Reference compound was serially diluted three-fold in DMSO for a total of nine test concentrations, beginning at 20 μM. Percent activation was determined and EC30 curves were generated using triplicate wells per concentration of compound.
# PRMT6 = biological target: T1, PRMT6 (Homo sapiens, UniProt Q96LA8); test: PRMT6 Biochemical Assay (3H-SAM Flashplate, peptide substrate); details: 30 min preincubation, room temperature
# T1 construct: Flag-PRMT6-His; made in house; host or cells: HEK 293F cells (BacMam virus)
# T1 sequence (Q96LA8 with tags, fused parts or gaps): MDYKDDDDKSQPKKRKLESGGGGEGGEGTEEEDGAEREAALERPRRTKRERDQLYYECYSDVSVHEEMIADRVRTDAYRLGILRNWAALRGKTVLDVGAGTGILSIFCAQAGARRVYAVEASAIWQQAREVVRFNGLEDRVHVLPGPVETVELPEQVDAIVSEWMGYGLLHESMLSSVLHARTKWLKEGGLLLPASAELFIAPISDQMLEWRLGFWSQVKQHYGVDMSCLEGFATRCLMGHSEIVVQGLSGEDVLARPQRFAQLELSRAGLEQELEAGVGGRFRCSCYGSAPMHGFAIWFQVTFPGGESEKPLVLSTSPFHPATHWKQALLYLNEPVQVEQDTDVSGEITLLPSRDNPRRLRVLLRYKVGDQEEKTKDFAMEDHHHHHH
# Description: S-adenosylmethionine (SAM), S-adenosylhomocysteine (SAH), bicine, Tween20, dimethylsulfoxide (DMSO), bovine skin gelatin (BSG), sodium butyrate and Tris(2-carboxyethyl)phosphine hydrochloride solution (TCEP) were purchased from Sigma-Aldrich at the highest level of purity possible. ^3H-SAM was purchase from American Radiolabeled Chemicals with a specific activity of 80 Ci/mmol. 384-well streptavidin Flashplates were purchased from PerkinElmer.
# Peptide representative of human histone H4 residues 36-50 was synthesized with an N-terminal linker-affinity tag motif and a C-terminal amide cap by 21st Century Biochemicals. The peptide was purified by high-performance liquid chromatography (HPLC) to greater than 95% purity and confirmed by liquid chromatography mass spectrometry (LC-MS). The sequence was Biot-Ahx-[…]-amide and contained a monomethylated lysine at position 44 (SEQ ID NO.:5).
# Full-length human PRMT6 (NM_018137.2) transcript clone was amplified from an HEK 293 cDNA library, incorporating a flanking 5′ sequence encoding a FLAG tag ([…]) (SEQ ID NO.:6) fused directly to Ser 2 of PRMT6 and a 3′ sequence encoding a hexa His sequence (HHHHHH) fused directly to Asp 375. The amplified gene was subcloned into pFastBacMam (Viva Biotech).
# Recombinant baculovirus were generated according to Bac-to-Bac kit instructions (Life Technologies). […] Infections were carried out at 37° C. for 48 hours, harvested by centrifugation, and stored at −80° C. for purification.
# Column was washed with 20 mM imidazole in the same buffer and Flag-PRMT6-His was eluted with 150 mM imidazole. Pooled fractions were dialysed against buffer Ni-A and further purified by anti-flag M2 affinity chromatography. Flag-PRMT6-His was eluted with 200 ug/ml FLAG peptide in the same buffer. Pooled fractions were dialysed in 20 mM Tris, 150 mM NaCl, 10% glycerol and 5 mM β-mercaptoethanol, pH 7.8. The purity of recovered protein was 95%.
# General Procedure for PRMT6 Enzyme Assays on Peptide Substrates.
# The assays were all performed in a buffer consisting of 20 mM Bicine (pH=7.6), 1 mM TCEP, 0.005% BSG, and 0.002% Tween 20, prepared on the day of use. Compounds in 100% DMSO (1 ul) were spotted into a polypropylene 384-well V-bottom plates (Greiner) using a Platemate Plus outfitted with a 384-channel head (Thermo Scientific). DMSO (1 ul) was added to Columns 11, 12, 23, 24, rows A-H for the maximum signal control and 1 ul of SAH, a known product and inhibitor of PRMT6, was added to columns 11, 12, 23, 24, rows I-P for the minimum signal control. A cocktail (40 ul) containing the PRMT6 enzyme was added by Multidrop Combi (Thermo-Fisher). The compounds were allowed to incubate with PRMT6 for 30 min at room temperature, then a cocktail (10 ul) containing SAM and peptide was added to initiate the reaction (final volume=51 ul). The final concentrations of the components were as follows: PRMT6 was 1 nM, ^3H-SAM was 200 nM, non-radiolabeled SAM was 250 nM, peptide was 75 nM, SAH in the minimum signal control wells was 1 mM, and the DMSO concentration was 2%. The assays were stopped by the addition of non-radiolabeled SAM (10 ul) to a final concentration of 400 uM, which dilutes the ^3H-SAM to a level where its incorporation into the peptide substrate is no longer detectable. 50 ul of the reaction in the 384-well polypropylene plate was then transferred to a 384-well Flashplate and the biotinylated peptides were allowed to bind to the streptavidin surface for at least 1 hour before being washed once with 0.1% Tween20 in a Biotek ELx405 plate washer. The plates were then read in a PerkinElmer TopCount plate reader to measure the quantity of ^3H-labeled peptide bound to the Flashplate surface, measured as disintegrations per minute (dpm) or alternatively, referred to as counts per minute (cpm).
# Where dpm=disintegrations per minute, cmpd=signal in assay well, and min and max are the respective minimum and maximum signal controls. […]
structure (smiles),measurement,setting,value
Cc1nn(C)c(C)c1-c1n[nH]cc1CN(C)CCN [Compound 26],EC30,[1],≥ 12 µM
same,pIC50,PRMT6,≤ 5.00
